Experimental data as given in ChEMBL document CHEMBL1201862, “PubChem BioAssay data set” (2004).
Calls of active or inactive are those of the source.

What was measured:
[1] = target: T1, Lysosomal acid glucosylceramidase (Homo sapiens, UniProt P04062); assay: Dose response cell-based high throughput screening assay to identify enhancers of beta-glucosidase activity. [Related pubchem assays: 784 ]; type: functional
T1 sequence (P04062 whole entry): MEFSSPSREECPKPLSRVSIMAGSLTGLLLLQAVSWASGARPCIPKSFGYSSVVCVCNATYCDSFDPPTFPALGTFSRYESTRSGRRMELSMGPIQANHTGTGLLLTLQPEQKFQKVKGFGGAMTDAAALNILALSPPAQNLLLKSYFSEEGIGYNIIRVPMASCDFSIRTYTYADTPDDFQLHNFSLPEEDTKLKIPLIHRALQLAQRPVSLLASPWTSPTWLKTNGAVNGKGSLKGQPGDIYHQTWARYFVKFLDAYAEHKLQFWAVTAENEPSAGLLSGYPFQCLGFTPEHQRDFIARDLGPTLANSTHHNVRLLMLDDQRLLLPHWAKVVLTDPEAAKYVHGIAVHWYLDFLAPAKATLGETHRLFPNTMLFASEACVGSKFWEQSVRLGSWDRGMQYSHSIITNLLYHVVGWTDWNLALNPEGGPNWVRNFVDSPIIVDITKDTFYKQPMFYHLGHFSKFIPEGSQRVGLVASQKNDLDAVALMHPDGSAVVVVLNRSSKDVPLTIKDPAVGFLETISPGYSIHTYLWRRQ

[2] = target: T2, High affinity choline transporter 1 (Homo sapiens, UniProt Q9GZV3); assay: CHT inhibitors, dose response, cell-based, 5-point CRC, membrane potential dye (AID 504840); type: functional
T2 sequence (Q9GZV3 whole entry): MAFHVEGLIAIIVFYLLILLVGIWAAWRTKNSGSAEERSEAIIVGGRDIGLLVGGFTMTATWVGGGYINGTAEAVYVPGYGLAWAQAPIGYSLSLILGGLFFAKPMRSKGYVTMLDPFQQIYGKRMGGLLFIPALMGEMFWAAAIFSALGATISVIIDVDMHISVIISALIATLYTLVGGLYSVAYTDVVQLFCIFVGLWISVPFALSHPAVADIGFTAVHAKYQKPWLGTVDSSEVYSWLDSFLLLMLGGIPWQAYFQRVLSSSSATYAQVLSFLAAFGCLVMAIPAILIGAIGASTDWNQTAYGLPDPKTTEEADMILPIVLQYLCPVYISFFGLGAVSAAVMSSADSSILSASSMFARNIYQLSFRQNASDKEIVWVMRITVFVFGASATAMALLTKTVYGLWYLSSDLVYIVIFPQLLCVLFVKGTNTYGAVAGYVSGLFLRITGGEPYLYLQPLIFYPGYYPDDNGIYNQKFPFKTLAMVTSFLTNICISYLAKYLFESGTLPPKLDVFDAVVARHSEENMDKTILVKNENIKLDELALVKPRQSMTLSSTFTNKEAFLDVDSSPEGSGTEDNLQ

[3] = target: T3, Microphthalmia-associated transcription factor (Homo sapiens, UniProt O75030); assay: TRPM1 promoter luciferase signal decrease, dose response, MITF inhibitor project, cell-based, SK-MEL-5, cherry-picked, set 3 (AID 493073); type: functional
T3 sequence (O75030 whole entry): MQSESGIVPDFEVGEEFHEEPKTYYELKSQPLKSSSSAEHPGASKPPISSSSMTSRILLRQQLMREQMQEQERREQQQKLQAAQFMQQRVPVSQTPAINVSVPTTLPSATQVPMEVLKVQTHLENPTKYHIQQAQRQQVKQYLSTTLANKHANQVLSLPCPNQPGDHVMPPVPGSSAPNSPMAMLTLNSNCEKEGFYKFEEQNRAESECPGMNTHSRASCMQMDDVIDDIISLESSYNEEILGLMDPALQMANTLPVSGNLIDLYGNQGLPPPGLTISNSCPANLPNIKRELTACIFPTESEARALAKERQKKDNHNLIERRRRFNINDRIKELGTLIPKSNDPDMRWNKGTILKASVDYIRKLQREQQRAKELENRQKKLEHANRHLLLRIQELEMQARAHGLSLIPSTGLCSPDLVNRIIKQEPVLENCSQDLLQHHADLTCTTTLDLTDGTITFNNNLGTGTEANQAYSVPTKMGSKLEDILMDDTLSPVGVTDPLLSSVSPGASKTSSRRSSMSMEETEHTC

[4] = target: T4, Replicative DNA helicase DnaB (Mycobacterium tuberculosis, UniProt P9WMR3); assay: DnaB intein splicing inhibitors, dose response, biochemical, cell-free fluorescence (AID 449749); type: functional
T4 sequence (P9WMR3 whole entry): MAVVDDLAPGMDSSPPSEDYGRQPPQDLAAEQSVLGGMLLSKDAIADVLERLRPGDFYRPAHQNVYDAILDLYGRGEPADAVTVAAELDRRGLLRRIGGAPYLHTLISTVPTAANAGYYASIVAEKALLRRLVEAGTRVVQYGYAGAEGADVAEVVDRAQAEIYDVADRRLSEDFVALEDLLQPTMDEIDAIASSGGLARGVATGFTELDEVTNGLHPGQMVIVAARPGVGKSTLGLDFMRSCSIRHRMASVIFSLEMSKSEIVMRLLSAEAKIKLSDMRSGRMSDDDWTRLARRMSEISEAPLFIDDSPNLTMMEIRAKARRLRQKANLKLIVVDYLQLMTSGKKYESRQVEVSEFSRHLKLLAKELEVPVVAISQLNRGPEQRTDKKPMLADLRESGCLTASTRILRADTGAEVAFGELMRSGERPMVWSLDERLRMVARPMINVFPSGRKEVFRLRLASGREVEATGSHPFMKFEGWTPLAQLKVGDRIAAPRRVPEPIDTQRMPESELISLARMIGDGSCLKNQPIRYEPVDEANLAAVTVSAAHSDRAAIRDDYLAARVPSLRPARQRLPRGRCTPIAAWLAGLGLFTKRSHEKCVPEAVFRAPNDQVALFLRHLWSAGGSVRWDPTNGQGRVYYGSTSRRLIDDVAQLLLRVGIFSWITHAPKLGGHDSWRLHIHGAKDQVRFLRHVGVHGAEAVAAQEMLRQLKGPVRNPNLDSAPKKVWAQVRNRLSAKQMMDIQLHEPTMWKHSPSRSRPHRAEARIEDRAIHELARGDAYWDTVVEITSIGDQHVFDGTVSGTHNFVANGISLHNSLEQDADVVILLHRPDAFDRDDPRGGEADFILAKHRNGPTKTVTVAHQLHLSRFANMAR

[5] = target: T5, Protein RecA (Mycobacterium tuberculosis, UniProt P9WHJ3); assay: Fluorescence Cell-Free Homogeneous Dose Retest to Identify Inhibitors of RecA-Intein Splicing Activity. [Related pubchem assays (depositor defined):AID2097, AID2223, AID489010, AID492950]; type: functional
T5 sequence (P9WHJ3 whole entry): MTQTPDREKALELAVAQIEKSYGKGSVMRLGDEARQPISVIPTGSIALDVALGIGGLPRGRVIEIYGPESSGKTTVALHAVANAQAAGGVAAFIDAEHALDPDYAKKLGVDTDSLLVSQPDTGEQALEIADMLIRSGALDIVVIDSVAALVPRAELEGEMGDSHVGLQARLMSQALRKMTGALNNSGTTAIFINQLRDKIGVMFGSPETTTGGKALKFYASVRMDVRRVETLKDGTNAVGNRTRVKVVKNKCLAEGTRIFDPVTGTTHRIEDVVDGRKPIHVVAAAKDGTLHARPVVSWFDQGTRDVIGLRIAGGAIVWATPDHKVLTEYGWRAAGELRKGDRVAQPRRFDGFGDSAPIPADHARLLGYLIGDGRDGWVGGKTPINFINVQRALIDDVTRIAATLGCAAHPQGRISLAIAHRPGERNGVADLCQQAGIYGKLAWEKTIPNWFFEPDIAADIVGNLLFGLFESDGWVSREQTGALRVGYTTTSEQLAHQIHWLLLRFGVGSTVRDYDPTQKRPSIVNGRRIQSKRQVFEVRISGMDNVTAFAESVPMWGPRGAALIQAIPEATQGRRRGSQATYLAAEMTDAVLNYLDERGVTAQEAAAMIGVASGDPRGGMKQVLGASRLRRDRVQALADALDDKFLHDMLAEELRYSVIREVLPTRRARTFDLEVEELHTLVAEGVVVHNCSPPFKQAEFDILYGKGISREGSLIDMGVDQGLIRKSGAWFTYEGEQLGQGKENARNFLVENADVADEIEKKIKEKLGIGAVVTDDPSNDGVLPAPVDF

[6] = tested on: Streptococcus sp. 'group A'; assay: growth inhibition of control SK(-) GAS strain, dose response, counter-screen for streptokinase expression inhibitor project, luminescence, kanamycin, BacTiterGlo, confirmation (AID 1900); type: functional, organism-based
[7] = tested on: Streptococcus; assay: Group A Streptococcus viability loss, dose response, counter-screen for streptokinase expression inhibitor project, luminescence, BacTiterGlo (AID 1915); type: functional, organism-based;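 further: potency for reduction of bacterial viability or growth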
[8] = target: T6, Short transient receptor potential channel 4 (Mus musculus, UniProt Q9QUQ5); assay: mouse TRPC4 channel activators, dose response, cell-based, HEK293 TRPC4/mu-opioid, Fluo-4 calcium (AID 434937); type: functional
T6 sequence (Q9QUQ5 whole entry): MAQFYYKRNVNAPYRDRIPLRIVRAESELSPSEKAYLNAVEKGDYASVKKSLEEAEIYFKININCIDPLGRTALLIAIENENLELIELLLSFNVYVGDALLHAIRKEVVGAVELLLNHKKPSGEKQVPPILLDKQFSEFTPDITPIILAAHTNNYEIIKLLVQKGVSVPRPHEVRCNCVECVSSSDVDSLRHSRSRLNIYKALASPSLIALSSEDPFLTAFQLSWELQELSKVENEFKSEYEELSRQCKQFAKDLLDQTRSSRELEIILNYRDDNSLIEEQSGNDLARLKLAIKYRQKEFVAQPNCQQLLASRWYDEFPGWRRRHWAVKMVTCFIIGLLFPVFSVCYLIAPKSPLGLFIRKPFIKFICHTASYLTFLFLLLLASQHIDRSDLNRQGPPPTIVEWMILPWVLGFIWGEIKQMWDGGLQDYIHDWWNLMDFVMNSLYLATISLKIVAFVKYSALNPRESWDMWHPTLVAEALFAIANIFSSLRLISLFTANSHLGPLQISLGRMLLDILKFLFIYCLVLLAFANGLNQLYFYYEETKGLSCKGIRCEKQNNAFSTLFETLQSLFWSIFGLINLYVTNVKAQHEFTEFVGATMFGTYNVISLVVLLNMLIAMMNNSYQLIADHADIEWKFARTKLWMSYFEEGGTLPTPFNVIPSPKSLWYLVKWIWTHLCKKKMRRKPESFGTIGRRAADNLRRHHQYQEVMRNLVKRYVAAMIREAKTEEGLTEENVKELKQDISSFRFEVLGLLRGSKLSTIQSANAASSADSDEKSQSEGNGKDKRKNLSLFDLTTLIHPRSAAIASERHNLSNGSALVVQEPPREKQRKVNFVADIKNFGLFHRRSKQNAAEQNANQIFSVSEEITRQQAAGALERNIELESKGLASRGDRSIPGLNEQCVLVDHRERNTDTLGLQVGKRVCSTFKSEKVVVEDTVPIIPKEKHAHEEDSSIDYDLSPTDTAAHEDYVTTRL

[9] = tested on: Vero; assay: cells; type: functional, cell-based; conditions: Chlorocebus sabaeus
[10] = tested on: Vero; assay: cells; type: functional; conditions: Chlorocebus sabaeus

**Q.** Which EC50 [1] does the source give for `CCn1c(CCNC(=O)c2ccc(Cl)cc2)nnc1SCC(=O)NC1CCCC1` here?
**A.** > 50 µM (not active)

**Q.** For `N=C(N)Nc1nc(C2COc3ccccc3O2)cs1` (configuration not stated), which IC50 [2] is on record?
**A.** 12.6 µM (active)

**Q.** For `CCN(Cc1ccc(OC)c(F)c1)C(=O)CCl`, which AC50 [3] is on record?
**A.** 3.36 µM (active)

**Q.** And the AC50 [4]?
**A.** 162 µM (active)

**Q.** And the EC50 [5]?
**A.** 5.37 µM (active)

**Q.** Which IC50 [2] does the source give for `CCOC(=O)c1cc(NC(=O)c2ccoc2C)cc(C(=O)OCC)c1` here?
**A.** 14.5 µM (active)

**Q.** How did the EC50 [6] turn out when `Cc1onc(-c2ccccc2)c1C(=O)NNC(=S)NC(=O)c1ccc(Cl)cc1Cl` was run?
**A.** 0.441 µM (active)

**Q.** What about the EC50 [7] of the same molecule?
**A.** 1.8 µM (active)

**Q.** And the EC50 [8]?
**A.** 1.88 µM (active)

**Q.** And the IC50 [9]?
**A.** 22.7 µM (active)

**Q.** And the CC50 [10]?
**A.** > 25 µM (active)

**Q.** How did the EC50 [1] turn out when `Cc1ccc2c(c1)[C@H]1OCC[C@H]1[C@@H](c1ccncc1)N2` was run?
**A.** > 10 µM (not active)

**Q.** With `COc1ccc2c(c1O)[C@]13CCN(C)[C@H](C2)[C@@H]1CCC(=O)C3` as the molecule, how does the EC50 [8] read?
**A.** 0.0427 µM (active)

**Q.** Which EC50 [1] does the source give for `CCN1CCN(c2nc(-c3cccnc3)nc3ccccc23)CC1` here?
**A.** > 50 µM (not active)

**Q.** How did the IC50 [2] turn out when `Cc1oc(-c2ccccc2)cc1C(=O)Nc1cccc(/C=C\C(=O)O)c1` was run?
**A.** 11.2 µM (active)

**Q.** With `CCOC(=O)C1(c2ccccc2)CCN(CCC(=O)Nc2ccccc2OC)CC1` as the molecule, how does the EC50 [8] read?
**A.** 1.88 µM (active)

**Q.** Which IC50 [2] does the source give for `CN1CCN(C(=O)CCCN2C(=O)/C(=C/c3ccccc3)SC2=S)CC1` here?
**A.** 13.5 µM (active)
